The target in the assay is T1, hSTING (Homo sapiens, UniProt Q86WV6, G230A/H232R/R293Q/R71H).
T1 construct: host or cells: THP1-Dual KO-IFNAR2 cells
Description: STING reporter assay in THP1-Dual KO-IFNAR2 cells (2'3'cGAMP stimulation, luciferase reporter). It is filed as cell-based. Conditions: 15 μM 2'3'cGAMP, 24 h, class symbols. The protocol:
STING pathway activation by the compounds described herein was measured using THP1-Dual™ cells (KO-IFNAR2).
THP1-Dual™ KO-IFNAR2 Cells (obtained from invivogen) were maintained in RPMI, 10% FCS, 5 ml P/S, 2 mM L-glut, 10 mM Hepes, and 1 mM sodium pyruvate. Compounds were spotted in empty 384 well tissue culture plates (Greiner 781182) by Echo for a final concentration of 0.0017-100 μM. Cells were plated into the TC plates at 40 μL per well, 2×10E6 cells/mL. For activation with STING ligand, 2′3′cGAMP (MW 718.38, obtained from Invivogen), was prepared in Optimem media.
The following solutions were prepared for each 1×384 plate: • Solution A: 2 mL Optimem with one of the following stimuli: • 60 μL of 10 mM 2′3′cGAMP→150 μM stock • Solution B: 2 mL Optimem with 60 μL Lipofectamine 2000→Incubate 5 min at RT
2 mL of solution A and 2 ml Solution B was mixed and incubated for 20 min at room temperature (RT). 20 μL of transfection solution (A+B) was added on top of the plated cells, with a final 2′3′cGAMP concentration of 15 μM. The plates were then centrifuged immediately at 340 g for 1 minute, after which they were incubated at 37° C., 5% CO2, >98% humidity for 24 h. Luciferase reporter activity was then measured. EC50 values were calculated by using standard methods known in the art.
Luciferase reporter assay: 10 μL of supernatant from the assay was transferred to white 384-plate with flat bottom and squared wells. One pouch of QUANTI-Luc™ Plus was dissolved in 25 mL of water. 100 μL of QLC Stabilizer per 25 mL of QUANTI-Luc™ Plus solution was added. 50 μL of QUANTI-Luc™ Plus/QLC solution per well was then added. Luminescence was measured on a Platereader (e.g., Spectramax I3X (Molecular Devices GF3637001)).
Luciferase reporter activity was then measured. EC50 values were calculated by using standard methods known in the art.

pEC50: −log10 of the molar value.

T1 sequence (Q86WV6 whole entry R71H/G230A/H232R/R293Q): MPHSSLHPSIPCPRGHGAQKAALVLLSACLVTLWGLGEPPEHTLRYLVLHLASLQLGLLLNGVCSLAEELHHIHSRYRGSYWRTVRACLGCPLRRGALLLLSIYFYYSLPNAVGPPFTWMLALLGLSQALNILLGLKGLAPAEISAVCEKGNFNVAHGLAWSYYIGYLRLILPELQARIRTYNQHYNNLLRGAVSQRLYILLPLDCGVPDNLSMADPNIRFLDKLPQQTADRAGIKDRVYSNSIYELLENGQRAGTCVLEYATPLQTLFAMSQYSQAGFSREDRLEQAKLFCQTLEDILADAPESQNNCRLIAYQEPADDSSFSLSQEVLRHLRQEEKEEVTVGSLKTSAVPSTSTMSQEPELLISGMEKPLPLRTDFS

In general, pEC50 refers to −log10 of the EC50, conventionally taken in molar units. For the compound `N#Cc1cc(Nc2cc(Cl)cc(OC(F)(F)F)c2)cc(Nc2ccc3cc[nH]c3c2)n1` [Compound 134, 4-{[3-chloro-5-(trifluoromethoxy)phenyl]amino}-6-[(1H-indol-6-yl)amino]pyridine-2-carbonitrile], the negative-log EC50 (pEC50) is 6.00 to 6.70. Regarding `N#Cc1cc(Cl)cc(Nc2cc(C#N)nc(Nc3ccc4cc[nH]c4c3)c2)c1` [Compound 135, 4-[(3-chloro-5-cyanophenyl)amino]-6-[(1H-indol-6-yl)amino]pyridine-2-carbonitrile], the pEC50 is 6.00 to 6.70.

On to `N#Cc1cc(Nc2cc(Cl)cc(Cl)c2)cc(Nc2ccc3cc[nH]c3c2)n1` [Compound 136, 4-[(3,5-dichlorophenyl)amino]-6-[(1H-indol-6-yl)amino]pyridine-2-carbonitrile], for which the negative logarithm of the EC50 (pEC50) was 6.00 to 6.70. As for `N#Cc1cc(Nc2cc(F)cc(F)c2)cc(Nc2ccc3cc[nH]c3c2)n1` [Compound 137, 4-[(3,5-difluorophenyl)amino]-6-[(1H-indol-6-yl)amino]pyridine-2-carbonitrile], the figure is 6.00 to 6.70; as for `N#Cc1cc(Nc2ccc(Cl)c(Cl)c2)cc(Nc2ccc3cc[nH]c3c2)n1` [Compound 138, 4-[(3,4-dichlorophenyl)amino]-6-[(1H-indol-6-yl)amino]pyridine-2-carbonitrile], 6.00 to 6.70; as for `N#Cc1cc(Nc2ccc(Cl)c(F)c2)cc(Nc2ccc3cc[nH]c3c2)n1` [Compound 139, 4-[(4-chloro-3-fluorophenyl)amino]-6-[(1H-indol-6-yl)amino]pyridine-2-carbonitrile], 6.00 to 6.70.

In turn, `N#Cc1cc(Nc2ccc(F)c(Cl)c2)cc(Nc2ccc3cc[nH]c3c2)n1` [Compound 140, 6-((1H-indol-6-yl)amino)-4-((3-chloro-4-fluorophenyl)amino)picolinonitrile] gave a pEC50 of 6.00 to 6.70. As for `N#Cc1cc(Nc2cncc(C(F)(F)F)c2)cc(Nc2ccc3cc[nH]c3c2)n1` [Compound 141, 6-[(1H-indol-6-yl)amino]-4-{[5-(trifluoromethyl)pyridin-3-yl]amino}pyridine-2-carbonitrile], the figure is 6.00 to 6.70; as for `N#Cc1cc(Nc2ccc3c(c2)CCC3)cc(Nc2ccc3cc[nH]c3c2)n1` [Compound 142, 4-[(2,3-dihydro-1H-inden-5-yl)amino]-6-[(1H-indol-6-yl)amino]pyridine-2-carbonitrile], 6.00 to 6.70; as for `N#Cc1cc(Nc2ccc3c(c2)OC(F)(F)C(F)(F)O3)cc(Nc2ccc3cc[nH]c3c2)n1` [Compound 143, 6-((1H-indol-6-yl)amino)-4-((2,2,3,3-tetrafluoro-2,3-dihydrobenzo[b][1,4]dioxin-6-yl)amino)picolinonitrile], 6.00 to 6.70. As for `N#Cc1cc(Nc2ccc3c(c2)OCCO3)cc(Nc2ccc3cc[nH]c3c2)n1` [Compound 144, 4-[(2,3-dihydro-1,4-benzodioxin-6-yl)amino]-6-[(1H-indol-6-yl)amino]pyridine-2-carbonitrile], the figure is 5.30 to 6.00; as for `N#Cc1cc(Nc2ccc3cc[nH]c3c2)cc(Nc2ccc3cc[nH]c3c2)n1` [Compound 145], 6.00 to 6.70; as for `Fc1cnc(Nc2ccc3cc[nH]c3c2)cc1Nc1ccc2cc[nH]c2c1` [Compound 146], 5.30 to 6.00. `N#Cc1cc(N2CCC(C(F)(F)F)CC2)cc(Nc2cc(Cl)c3cc[nH]c3c2)n1` [Compound 147, 6-[(4-chloro-1H-indol-6-yl)amino]-4-[4-(trifluoromethyl)piperidin-1-yl]pyridine-2-carbonitrile] showed a negative logarithm of the EC50 (pEC50) of 6.00 to 6.70.

As for `N#Cc1cc(N2CCN(CC(F)(F)F)CC2)cc(Nc2cc(Cl)c3cc[nH]c3c2)n1` [Compound 148, 6-[(4-chloro-1H-indol-6-yl)amino]-4-[4-(2,2,2-trifluoroethyl)piperazin-1-yl]pyridine-2-carbonitrile], the negative-log EC50 (pEC50) was 5.30 to 6.00. In the case of `N#Cc1cc(N2CCC(Cc3ccc(F)cc3)CC2)cc(Nc2cc(Cl)c3cc[nH]c3c2)n1` [Compound 149, 6-[(4-chloro-1H-indol-6-yl)amino]-4-{4-[(4-fluorophenyl)methyl]piperidin-1-yl}pyridine-2-carbonitrile], the negative logarithm of the EC50 (pEC50) was 6.00 to 6.70. On to `COc1cc(Nc2cc(C#N)nc(Nc3cc(Cl)c4cc[nH]c4c3)c2)cnc1Cl` [Compound 150, 6-[(4-chloro-1H-indol-6-yl)amino]-4-[(6-chloro-5-methoxypyridin-3-yl)amino]pyridine-2-carbonitrile], for which the pEC50 is 6.00 to 6.70. Next, `N#Cc1cc(N2CCC(Cc3ccccc3)CC2)cc(Nc2cc(Cl)c3cc[nH]c3c2)n1` [Compound 151, 4-(4-benzylpiperidin-1-yl)-6-[(4-chloro-1H-indol-6-yl)amino]pyridine-2-carbonitrile]: 6.00 to 6.70; `CN1CCN(c2cc(C#N)nc(Nc3cc(Cl)c4cc[nH]c4c3)c2)CC1` [Compound 152, 6-[(4-chloro-1H-indol-6-yl)amino]-4-(4-methylpiperazin-1-yl)pyridine-2-carbonitrile]: 4.00 to 5.30. As to `N#Cc1cc(Nc2ccc(OCC(F)(F)F)nc2)cc(Nc2cc(Cl)c3cc[nH]c3c2)n1` [Compound 153, 6-[(4-chloro-1H-indol-6-yl)amino]-4-{[6-(2,2,2-trifluoroethoxy)pyridin-3-yl]amino}pyridine 2-carbonitrile], the negative-log EC50 (pEC50) is 6.70 to 7.40. As for `N#Cc1cc(Nc2ccc(Cl)c(Cl)c2)cc(Nc2cc(Cl)c3cc[nH]c3c2)n1` [Compound 154, 6-[(4-chloro-1H-indol-6-yl)amino]-4-[(3,4-dichlorophenyl)amino]pyridine-2-carbonitrile], the figure is 6.70 to 7.40; as for `N#Cc1cc(N2CCC(Oc3ccccc3)CC2)cc(Nc2cc(Cl)c3cc[nH]c3c2)n1` [Compound 155, 6-[(4-chloro-1H-indol-6-yl)amino]-4-(4-phenoxypiperidin-1-yl)pyridine-2-carbonitrile], 6.00 to 6.70; as for `COC1CCN(c2cc(C#N)nc(Nc3cc(Cl)c4cc[nH]c4c3)c2)CC1` [Compound 156, 6-[(4-chloro-1H-indol-6-yl)amino]-4-(4-methoxypiperidin-1-yl)pyridine-2-carbonitrile], 5.30 to 6.00.

With `CC(C)CN1CCN(c2cc(C#N)nc(Nc3cc(Cl)c4cc[nH]c4c3)c2)CC1` [Compound 157, 6-[(4-chloro-1H-indol-6-yl)amino]-4-[4-(2-methylpropyl)piperazin-1-yl]pyridine-2-carbonitrile], the pEC50 was 5.30 to 6.00. `N#Cc1cc(Nc2cncc(F)c2)cc(Nc2cc(Cl)c3cc[nH]c3c2)n1` [Compound 158, 6-[(4-chloro-1H-indol-6-yl)amino]-4-[(5-fluoropyridin-3-yl)amino]pyridine-2-carbonitrile] had a pEC50 of 6.00 to 6.70. As for `N#Cc1cc(Nc2ccc(C(F)(F)F)c(F)c2)cc(Nc2cc(Cl)c3cc[nH]c3c2)n1` [Compound 159, 6-[(4-chloro-1H-indol-6-yl)amino]-4-{[3-fluoro-4-(trifluoromethyl)phenyl]amino}pyridine-2-carbonitrile], the figure is 6.70 to 7.40. Next, `CC1(C)CCN(c2cc(C#N)nc(Nc3cc(Cl)c4cc[nH]c4c3)c2)CC1` [Compound 160, 6-[(4-chloro-1H-indol-6-yl)amino]-4-(4,4-dimethylpiperidin-1-yl)pyridine-2-carbonitrile]: 6.00 to 6.70. `N#Cc1cc(N2CCOCC2)cc(Nc2cc(Cl)c3cc[nH]c3c2)n1` [Compound 161, 6-[(4-chloro-1H-indol-6-yl)amino]-4-(morpholin-4-yl)pyridine-2-carbonitrile] had a pEC50 of 5.30 to 6.00. Next, `CC(C)c1cncc(Nc2cc(C#N)nc(Nc3cc(Cl)c4cc[nH]c4c3)c2)c1` [Compound 162, 6-[(4-chloro-1H-indol-6-yl)amino]-4-{[5-(propan-2-yl)pyridin-3-yl]amino}pyridine-2-carbonitrile]: 6.00 to 6.70; `CC(C)(C)c1cncc(Nc2cc(C#N)nc(Nc3cc(Cl)c4cc[nH]c4c3)c2)c1` [Compound 163, 4-[(5-tert-butylpyridin-3-yl)amino]-6-[(4-chloro-1H-indol-6-yl)amino]pyridine-2-carbonitrile]: 6.00 to 6.70; `N#Cc1cc(Nc2cc(Cl)cc(Cl)c2)cc(Nc2cc(Cl)c3cc[nH]c3c2)n1` [Compound 164, 6-[(4-chloro-1H-indol-6-yl)amino]-4-[(3,5-dichlorophenyl)amino]pyridine-2-carbonitrile]: 6.00 to 6.70. Take `N#Cc1cc(Nc2ccc(Cl)c(F)c2)cc(Nc2cc(Cl)c3cc[nH]c3c2)n1` [Compound 165, 6-[(4-chloro-1H-indol-6-yl)amino]-4-[(4-chloro-3-fluorophenyl)amino]pyridine-2-carbonitrile]: the pEC50 is 6.70 to 7.40. Next, `COc1ccc(Nc2cc(C#N)nc(Nc3cc(Cl)c4cc[nH]c4c3)c2)cn1` [Compound 166, 6-[(4-chloro-1H-indol-6-yl)amino]-4-[(6-methoxypyridin-3-yl)amino]pyridine-2-carbonitrile]: 6.00 to 6.70.

For the origin of these results see patent US20240076285A1, “COMPOUNDS AND COMPOSITIONS FOR TREATING CONDITIONS ASSOCIATED WITH STING ACTIVITY” (IFM Due, Inc., priority 2020, published 2024).
